Measured values reported in patent US20230391868A1, “COMPOSITIONS FOR AND METHODS OF TREATING CANCER” (The George Washington University, priority 2022, published 2023).

Columns and labels:
Assay type in all cases: cell-based
[1] = tested on: primary mouse BMDMs; experiment: Pro-phagocytic signal gene expression in BMDMs
Procedure: Bone marrow-derived macrophages were isolated from the femurs and tibias of wild-type C57/Bl6, HDAC6 knockout (C57BL/6J-Hdac6em2Lutzy/J, 029318, Jackson Laboratory), or UBC-GFP (C57BL/6-Tg(UBC-GFP)30Scha/J, 004353, Jackson Laboratory). Isolated bone marrow cells were cultured in RPMI 1640 complete medium with 10% FBS, 1% NEAA, and 1% penicillin-streptomycin in 5% CO2 at 37° C. Medium was supplemented with murine recombinant M-CSF (20 ng/mL, 576404, Biolegend) to differentiate monocytes into macrophages. Three days after bone marrow isolation, undifferentiated and floating cells were washed with PBS and replaced with fresh RPMI media. A3.1A7 cells and BMDMs were pretreated with 5 μM of HDAC6 inhibitor NextA or vehicle prior to adding polarizing cytokines.
qRT-PCR: Total RNA was extracted from cells using the Trizol reagent according to manufacturer's instructions (ThermoFisher Scientific, 15596018). Samples were then processed immediately or stored at −80° C. RNA was quantified using a NanoDrop One Spectrophotometer (ThermoFisher Scientific). The 260/280 ratios were routinely over 1.8. […] Target mRNA was quantified using MyIQ single-color real-time PCR detection system from Bio-Rad (Bio-Rad, Hercules, CA) and iQ SYBR green Supermix (Bio-Rad, 1708882). […] Quantification is expressed in arbitrary units and target mRNA levels were normalized to R-actin expression.

[2] = tested on: SIRPα; experiment: SIRPα expression on NK cells
[3] = tested on: WM793 human melanoma cells; experiment: CD47 gene expression upon IFNγ in WM793 cells; conditions: 5 μM NextA (FIG. 3L)
Procedure: qRT-PCR: Total RNA was extracted from cells using the Trizol reagent according to manufacturer's instructions (ThermoFisher Scientific, 15596018). Samples were then processed immediately or stored at −80° C. RNA was quantified using a NanoDrop One Spectrophotometer (ThermoFisher Scientific). The 260/280 ratios were routinely over 1.8. Sample cDNA was produced using the iScript cDNA synthesis kit (Bio-Rad, 1708891). Target mRNA was quantified using MyIQ single-color real-time PCR detection system from Bio-Rad (Bio-Rad, Hercules, CA) and iQ SYBR green Supermix (Bio-Rad, 1708882). […] Quantification is expressed in arbitrary units and target mRNA levels were normalized to R-actin expression.
This phenomenon was further examined in human melanoma cell lines to test the translational application of the results obtained using mouse models. […] Furthermore, the effects of HDAC6 KD on IFNγ-driven CD47 upregulation was analyzed. […] The effects of pharmacological inhibition of HDAC6 in other human melanoma cell lines (WM1361A and WM793) were also assessed. […]

**Q.** `CCCCN(Cc1ccc(C(=O)NO)cc1)C(=O)Nc1ccccc1` [NextA, Nexturastat A] was tested. Which “expression of Lrp1, Cd36, and Mfge8” value [1] did it give?
**A.** Its value is “significant increase”.

**Q.** What about the “SIRPα expression on NK cells” value [2] of the same compound?
**A.** The value was “downregulated”.

**Q.** What about the “IFNγ-driven CD47 upregulation” value [3] of the same compound?
**A.** Its value is “corroborated”.
